The source of these data is patent US8877754B2, “Compounds, pharmaceutical compositions and uses thereof” (Boehringer Ingelheim International GmbH, priority 2010, dated 2014).

Structures are written as SMILES.

T1 sequence (O00763 129-2458 limits assumed): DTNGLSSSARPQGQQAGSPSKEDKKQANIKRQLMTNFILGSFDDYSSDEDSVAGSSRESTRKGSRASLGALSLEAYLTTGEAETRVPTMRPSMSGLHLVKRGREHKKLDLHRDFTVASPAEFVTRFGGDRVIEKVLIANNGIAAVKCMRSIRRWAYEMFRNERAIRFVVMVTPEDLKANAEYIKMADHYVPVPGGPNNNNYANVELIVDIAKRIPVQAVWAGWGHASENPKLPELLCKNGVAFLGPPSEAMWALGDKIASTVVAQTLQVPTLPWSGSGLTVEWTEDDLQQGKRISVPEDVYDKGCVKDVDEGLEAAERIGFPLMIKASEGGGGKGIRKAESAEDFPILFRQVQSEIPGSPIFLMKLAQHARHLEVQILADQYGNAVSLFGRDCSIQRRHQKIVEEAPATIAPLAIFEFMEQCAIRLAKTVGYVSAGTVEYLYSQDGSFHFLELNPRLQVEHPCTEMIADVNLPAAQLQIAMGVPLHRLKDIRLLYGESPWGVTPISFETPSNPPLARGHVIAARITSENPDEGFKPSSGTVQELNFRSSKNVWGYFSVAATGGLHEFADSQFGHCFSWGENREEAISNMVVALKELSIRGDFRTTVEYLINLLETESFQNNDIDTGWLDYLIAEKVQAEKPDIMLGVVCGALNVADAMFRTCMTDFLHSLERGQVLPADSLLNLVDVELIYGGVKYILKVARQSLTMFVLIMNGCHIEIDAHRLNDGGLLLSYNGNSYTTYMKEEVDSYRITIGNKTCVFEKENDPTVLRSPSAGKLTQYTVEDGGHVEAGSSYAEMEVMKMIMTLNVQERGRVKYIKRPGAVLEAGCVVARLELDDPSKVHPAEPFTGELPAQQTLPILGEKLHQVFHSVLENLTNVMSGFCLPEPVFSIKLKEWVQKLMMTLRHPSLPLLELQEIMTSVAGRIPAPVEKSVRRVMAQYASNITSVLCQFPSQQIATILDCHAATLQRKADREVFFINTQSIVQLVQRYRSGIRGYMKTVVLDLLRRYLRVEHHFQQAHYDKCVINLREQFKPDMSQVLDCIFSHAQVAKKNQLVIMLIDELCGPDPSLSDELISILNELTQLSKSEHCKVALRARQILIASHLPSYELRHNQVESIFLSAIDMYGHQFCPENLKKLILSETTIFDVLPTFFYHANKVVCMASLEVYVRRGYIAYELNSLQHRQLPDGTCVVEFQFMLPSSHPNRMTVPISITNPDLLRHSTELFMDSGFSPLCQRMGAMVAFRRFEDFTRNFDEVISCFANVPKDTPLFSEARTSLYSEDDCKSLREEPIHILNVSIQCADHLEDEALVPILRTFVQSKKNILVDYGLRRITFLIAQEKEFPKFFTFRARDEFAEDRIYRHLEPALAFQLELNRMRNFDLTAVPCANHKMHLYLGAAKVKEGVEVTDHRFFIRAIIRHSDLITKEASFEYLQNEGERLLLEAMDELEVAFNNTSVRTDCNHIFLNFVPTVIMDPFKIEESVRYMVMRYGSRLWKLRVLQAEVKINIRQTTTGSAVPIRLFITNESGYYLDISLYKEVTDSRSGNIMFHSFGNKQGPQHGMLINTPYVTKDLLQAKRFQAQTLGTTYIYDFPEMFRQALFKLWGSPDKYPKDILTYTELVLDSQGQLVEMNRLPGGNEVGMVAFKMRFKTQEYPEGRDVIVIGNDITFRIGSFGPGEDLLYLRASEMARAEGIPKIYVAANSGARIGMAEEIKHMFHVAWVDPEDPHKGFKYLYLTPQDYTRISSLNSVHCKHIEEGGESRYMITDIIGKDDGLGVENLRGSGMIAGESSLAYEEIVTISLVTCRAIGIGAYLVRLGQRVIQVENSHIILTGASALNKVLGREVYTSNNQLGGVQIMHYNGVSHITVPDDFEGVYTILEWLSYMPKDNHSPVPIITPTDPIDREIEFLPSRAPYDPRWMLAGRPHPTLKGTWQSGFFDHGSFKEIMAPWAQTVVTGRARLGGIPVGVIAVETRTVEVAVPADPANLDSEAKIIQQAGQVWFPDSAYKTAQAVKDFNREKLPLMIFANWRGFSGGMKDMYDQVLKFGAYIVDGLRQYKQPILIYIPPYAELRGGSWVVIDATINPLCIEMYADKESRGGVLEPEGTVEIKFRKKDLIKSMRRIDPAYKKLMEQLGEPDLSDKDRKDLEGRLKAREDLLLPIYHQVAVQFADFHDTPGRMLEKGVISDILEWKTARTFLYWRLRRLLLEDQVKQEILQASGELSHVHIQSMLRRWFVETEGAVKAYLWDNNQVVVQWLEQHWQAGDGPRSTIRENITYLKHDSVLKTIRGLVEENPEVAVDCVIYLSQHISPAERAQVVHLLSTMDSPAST

The assay has as its target T1, human ACC2 (Homo sapiens, UniProt O00763).
T1 construct: made in house; host or cells: insect cells, baculoviral expression system
Briefly: ACC2 assay, spectrophotometric 384 well assay (NADH-linked, coupled lactate dehydrogenase/pyruvate kinase). It is filed as biochemical. The note with it: hACC2 construct lacking the 128 N-terminal amino acids; 25° C., 340 nm, 15 minutes. As for the experimental part: Spectrophotometric 384 Well Assay
Malonyl CoA formation by acetyl CoA carboxylases is stoichometrically linked to the consumption of ATP. ACC2 activity is measured in a NADH-linked kinetic method measuring ADP generated during the ACC reaction using a coupled lactate dehydrogenase/pyruvate kinase reaction.
For biological testing, a human ACC2 construct which lacks the 128 amino acids at the N-terminus for increased solubility (nt 385-6966 in Genbank entry AJ575592) is cloned. The protein is then expressed in insect cells using a baculoviral expression system. Protein purification is performed by anion exchange.
All compounds are dissolved in dimethyl sulfoxide (DMSO) to a concentration of 10 mM.
Assay reactions are then carried out in 384-well plates, with hACC2 in an appropriate dilution and at final assay concentrations (f.c.) of 100 mM Tris (pH 7.5), 10 mM trisodium citrate, 25 mM KHCO3, 10 mM MgCl2, 0.5 mg/mL BSA, 3.75 mM reduced L-glutathione, 15 U/mL lactate dehydrogenase, 0.5 mM phosphoenolpyruvate, 15 U/mL pyruvate kinase, compounds at different concentrations at final DMSO concentrations of 1%.
The enzymatic reaction is then started by addition of a mixture of NADH, acetyl Coenzyme A (both 200 μM f.c.) and ATP (500 uM f.c.). The decrease of the optical density (slope S) is then determined at 25° C. at a wavelength of 340 nm over 15 minutes in a spectrophotometric reader.
Each assay microtiter plate contains wells with vehicle instead of compound as controls for the non-inhibited enzyme (100% CTL; ‘HIGH’) and wells without acetyl-CoA as controls for non-specific NADH degradation (0% CTL; ‘LOW’). The slope S is used for calculation of % CTL=(S(compound)−S(‘LOW’))/(S(‘HIGH’)—S(‘LOW’))*100. Compounds will give values between 100% CTL (no inhibition) and 0% CTL (complete inhibition).
For IC50 value determination, the sample slope in the presence of the test compound after subtraction of the low controls (S(compound)−S(‘LOW’)) are used.
An IC50 value is derived from the compound slopes at different dosages after subtraction of the low controls (S(compound)−S(‘LOW’)) by non-linear regression curve fitting (equation y=(A+((B−A)/(1+((C/x)^D))))).
Turning to `CCOc1ccc(C#Cc2ccc(CC(=O)NC3CC3)cc2)cc1` [Example 1.23], the IC50 – broadly, the midpoint of a concentration-inhibition curve – came to 1000 nM.

`CCNC(=O)C(C)c1ccc(C#Cc2ccc(OCC3CCOCC3)cc2)cc1` (stereo not shown) [Example 5.13] returned an IC50 of 890 nM.

Turning to `CCOc1ccc(C#Cc2ccc(C(C)C(=O)Nc3ncccn3)cc2)cc1` (stereo not shown) [Example 6.15], half-maximal inhibition (IC50) required 290 nM. Against the preceding compound, the IC50 is about 3.1-fold lower.

`CCNC(=O)C(C)c1ccc(C#Cc2cnc(NC3CCCC3)nc2)cc1` (stereo not shown) [Example 2.3] yielded an IC50 of 710 nM.

As for `CCNC(=O)C(C)c1ccc(C#Cc2cc(OCC)ncn2)cc1` (stereo not shown) [Example 7.13], it took 2000 nM to reach half-maximal inhibition (IC50).

In turn, `CCOc1ccc(C#Cc2ccc(C(C)C(=O)NC(C)(C)C#N)cc2)cc1` (stereo not shown) [Example 6.26] gave an IC50 of 18700 nM.

For the compound `CCNC(=O)C(C)c1ccc(C#Cc2ccc(OC3CCCC3)cc2)cc1` (stereo not shown) [Example 7.46], it took 110 nM to reach half-maximal inhibition (IC50). This IC50 is about 170-fold lower than that of the compound before.

With `CCCCn1ccc(C#Cc2ccc(C(C)C(=O)NCC)cc2)cc1=O` (stereo not shown) [Example 7.35], the IC50 was found to be 2100 nM.

`CCOc1ccc(C#Cc2ccc(CC(=O)NC)cc2)cc1` [Example 1.6] gave an IC50 of 5400 nM.

With `CCNC(=O)C(C)c1ccc(C#Cc2ccc(OCC3CC3(F)F)cc2)cc1` (stereo not shown) [Example 5.20], the concentration for half-maximal inhibition (IC50) is 90 nM. This IC50 lies about 60-fold lower than the previous one.

`CCNC(=O)C(C)c1ccc(C#Cc2cnc(N(C)C3CC3)nc2)cc1` (stereo not shown) [Example 2.14] came in with an IC50 of 6800 nM.

For `CCNC(=O)C(C)c1ccc(C#Cc2cnc(N3CC4CCCC4C3)nc2)cc1` (stereo not shown) [Example 2.11], the IC50 was 270 nM.

The compound `CCOc1ccc(C#Cc2ccc(C(C)C(N)=O)cc2)cc1` (stereo not shown) [Example 1.9] registered an IC50 of 220 nM.

`CCOc1ccc(C#Cc2ccc(C(C)C(=O)NC3CCOCC3)cc2)cc1` (stereo not shown) [Example 6.17] gave an IC50 of 18700 nM.

`CCNC(=O)C(C)c1ccc(C#Cc2ccc(OCCOCC)cc2)cc1` (stereo not shown) [Example 5.4]: inhibition was half-maximal at 1100 nM (IC50).

As to `CCNC(=O)C(C)c1ccc(C#Cc2cnc(N3CCCCC3)nc2)cc1` (stereo not shown) [Example 2.15], the IC50 was 1500 nM. This IC50 and that of the compound before are within 1.5-fold of each other.

As to `CCCOc1ccc(C#Cc2ccc(C(C)(C)C(=O)NCC)cc2)cc1` [Example 1.8], the IC50 turned out to be 2400 nM.

`CCNC(=O)C(C)c1ccc(C#Cc2cccc(OCc3ccccc3)c2)cc1` (stereo not shown) [Example 7.11] yielded an IC50 of 380 nM. This IC50 lies about 6.3-fold lower than the previous one.

On to `CCOc1ccc(C#Cc2ccc(C(C)C(=O)NCCOC)cc2)cc1` (stereo not shown) [Example 1.12], for which inhibition was half-maximal at 9700 nM (IC50).

As for `CCNC(=O)Cc1ccc(C#Cc2ccc(OCC)cc2)cc1` [Example 1.22], the IC50 amounted to 3600 nM.

For `CCOc1ccc(C#Cc2ccc(CCC(=O)NC)cc2)cc1` [Example 1.1, 3-[4-(4-Ethoxy-phenylethynyl)-phenyl]-N-methyl-propionamide], the IC50 was 4300 nM.

Turning to `CCNC(=O)C(C)c1ccc(C#Cc2cnc(NCCF)nc2)cc1` (stereo not shown) [Example 2.9], the IC50 stood at 2500 nM.

In the case of `CCOc1ccc(C#Cc2ccc(C(C)C(=O)Nc3cc(C)on3)cc2)cc1` (stereo not shown) [Example 6.16], 100 nM corresponded to half-maximal inhibition (IC50). Compared with the last compound, the IC50 is about 25-fold lower.

`CCNC(=O)C(C)c1ccc(C#Cc2cnc(NC3CCC3)nc2)cc1` (stereo not shown) [Example 2.12] yielded an IC50 of 690 nM.

The compound `CCNC(=O)C(C)c1ccc(C#Cc2cnc(N3CCC3)nc2)cc1` (stereo not shown) [Example 2.7] yielded an IC50 of 3700 nM. Compared with the last compound, the IC50 is about 5.4-fold higher.

For the compound `CCCCOc1ccc(C#Cc2ccc(C(C)C(=O)NCC)cc2)nn1` (stereo not shown) [Example 7.37], half-maximal inhibition (IC50) required 3200 nM.

`CCOc1ccc(C#Cc2ccc(C(C)C(=O)Nc3cc(C)[nH]n3)cc2)cc1` (stereo not shown) [Example 6.21] gave an IC50 of 25500 nM.

Consider `CCNC(=O)C(C)c1ccc(C#Cc2ccc(N3CCCCC3=O)cc2)cc1` (stereo not shown) [Example 7.15], for which it took 4000 nM to reach half-maximal inhibition (IC50).

On to `CCCNC(=O)C(C)c1ccc(C#Cc2ccc(OCC)cc2)cc1` (stereo not shown) [Example 1.16], for which half-maximal inhibition (IC50) was put at 610 nM.

Regarding `CCNC(=O)C(C)c1ccc(C#Cc2ccc(COC)cc2)cc1` (stereo not shown) [Example 7.27], the IC50 stood at 10900 nM. This IC50 is about 18-fold higher than that of the compound before.

The compound `CCNC(=O)C(C)c1ccc(C#Cc2cnc(NC(C)C)nc2)cc1` (stereo not shown) [Example 2.1, N-Ethyl-2-[4-(2-isopropylamino-pyrimidin-5-ylethynyl)-phenyl]-propionamide] gave an IC50 of 690 nM.

Compound `CCNC(=O)C(C)c1ccc(C#Cc2ccc(OCCC3CC3)cc2)cc1` (stereo not shown) [Example 5.5] came in with an IC50 of 200 nM.

On to `CCOc1ccc(C#Cc2ccc(C(C)C(=O)Nc3ccncn3)cc2)cc1` (stereo not shown) [Example 6.2], for which half-maximal inhibition (IC50) was put at 520 nM.

On to `CCNC(=O)C(C)c1ccc(C#Cc2ccc(OC(C)c3ccncc3)cc2)cc1` (stereo not shown) [Example 5.8], for which the IC50 worked out at 1500 nM.

In turn, `CCNC(=O)C(C)c1ccc(C#Cc2ccc(OC3CCCC3)nc2)cc1` (stereo not shown) [Example 7.30] gave an IC50 of 220 nM.

As to `CCCOc1ccc(C#Cc2ccc(C(C)C(=O)NCC)cc2)cc1` (stereo not shown) [Example 7.25], half-maximal inhibition (IC50) required 70 nM.

`CCOc1ccc(C#Cc2ccc(C(C)C(=O)Nc3ccnn3CC)cc2)cc1` (stereo not shown) [Example 6.11]: the IC50 was found to be 840 nM.
